Assay [1] addresses T1, Type-1 angiotensin II receptor (Homo sapiens, UniProt P30556).
T1 sequence (P30556 whole entry): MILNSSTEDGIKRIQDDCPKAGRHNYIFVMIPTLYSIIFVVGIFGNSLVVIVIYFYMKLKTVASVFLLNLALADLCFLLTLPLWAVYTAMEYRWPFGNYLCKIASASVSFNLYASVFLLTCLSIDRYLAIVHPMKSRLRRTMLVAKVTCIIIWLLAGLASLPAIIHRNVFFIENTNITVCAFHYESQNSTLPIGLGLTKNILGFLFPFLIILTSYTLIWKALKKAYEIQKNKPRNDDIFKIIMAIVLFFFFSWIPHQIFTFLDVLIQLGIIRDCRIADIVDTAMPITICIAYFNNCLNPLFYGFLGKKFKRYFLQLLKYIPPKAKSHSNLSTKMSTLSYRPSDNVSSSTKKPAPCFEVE
The experiment in a line: Tested for binding affinity to Angiotensin II receptor, type 1.

In assay [2] the target is T2, Type-1 angiotensin II receptor B (Rattus norvegicus, UniProt P29089).
T2 sequence (P29089 whole entry): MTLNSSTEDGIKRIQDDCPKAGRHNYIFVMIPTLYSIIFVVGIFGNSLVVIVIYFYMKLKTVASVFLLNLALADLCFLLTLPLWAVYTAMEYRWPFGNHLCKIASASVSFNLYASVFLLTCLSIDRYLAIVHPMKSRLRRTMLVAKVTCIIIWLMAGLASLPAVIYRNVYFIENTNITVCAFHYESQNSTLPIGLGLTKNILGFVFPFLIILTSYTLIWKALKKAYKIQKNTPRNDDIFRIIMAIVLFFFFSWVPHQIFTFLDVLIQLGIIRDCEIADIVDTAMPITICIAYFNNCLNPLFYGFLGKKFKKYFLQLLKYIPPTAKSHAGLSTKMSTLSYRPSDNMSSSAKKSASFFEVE
Kind of assay: Tested for inhibition of [125I]- AII specific binding to rat mesenteric arteries, expressed as IC50.

Assay [3] is filed under the species Oryctolagus cuniculus. The experiment in a line: Tested for inhibition of AII-induced vasoconstriction of rabbit aorta. The assay is classed as functional.
Assay [4] relates to Rattus norvegicus. Kind of assay: Tested for the dose that produced a 50% inhibition of the pressor response to AII in conscious normotensive rats administered intraduodenally. The note with it: intraduodenal, read-out: ID50 (the source's name). The assay is classed as functional.
For assay [5], the system named is Rattus norvegicus. Kind of assay: Tested for the dose that produced a 50% inhibition of the pressor response to AII in conscious normotensive rats administered intravenously. The following applies: iv, read-out: ID50 (the source's name). The assay is classed as functional.
Assay [6] has as its system Rattus norvegicus. Kind of assay: Tested for time for the pressor response to AII to recover 50% of its initial effect after intraduodenal dosing of 30 mg/kg. The assay is classed as functional, organism-based. More on the design: dose 30 mg/kg.
Assay [7] has as its system Rattus norvegicus. Kind of assay: Tested for time for the pressor response to AII to recover 50% of its initial effect after intraduodenal dosing of 10 mg/kg. Further details: dose 10 mg/kg. The assay is classed as functional, organism-based.
The target of assay [8] is T1, Type-1 angiotensin II receptor. Kind of assay: Tested for Angiotensin II receptor, type 1 affinity in the absence of BSA.
Assay [9] shares this target. Kind of assay: Tested for Angiotensin II receptor, type 1 affinity in the presence of 0.25% BSA.
In assay [10] the test system is Canis familiaris. The experiment in a line: Tested for po dose required to inhibit the pressor effect up to 20 hr in Angiotensin I infused dog. The assay is classed as functional, Canis lupus familiaris.
Assay [11] deals with Canis familiaris. Kind of assay: Tested for lowering of mean arterial blood pressure at a dose of 10 mg/kg id, in 2-kidney, 1-clip Goldblatt renin dependent hypertensive dog for more than 12 hours. The assay is classed as functional, Canis lupus familiaris.
Assay [12] is filed under the species Oryctolagus cuniculus. The experiment in a line: Tested for inhibition of AII-induced vasoconstriction of rabbit aorta measured at 30% inhibition. The assay is classed as functional.
For assay [13], the species on record is Rattus norvegicus. Kind of assay: Time required for effect of drug after washout of rat adrenal cortical membranes. The assay is classed as functional.
The target in assay [14] is T1, Type-1 angiotensin II receptor. Kind of assay: Tested for Angiotensin II receptor, type 1 affinity in the absence of bovine serum albumin (BSA).
The target is the same in assay [15]. The experiment in a line: Tested for Angiotensin II receptor, type 1 affinity in the presence of 0.25% bovine serum albumin (BSA).
In assay [16] the test system is Canis familiaris. The experiment in a line: Tested for po dose required to inhibit the pressor effect up to 14 hr in Angiotensin I infused dog. The assay is classed as functional, Canis lupus familiaris.

As a reminder, the IC50 is the concentration that gives 50% inhibition. In assay [1], `CCCCc1ncc(/C=C(\Cc2cccs2)C(=O)O)n1Cc1ccccc1Cl` registered an IC50 of 4530 nM.
`CCCCc1ncc(/C=C(\Cc2cccs2)C(=O)O)n1Cc1ccccc1` yielded an IC50 in assay [1] of 440 nM.
The molecule `CCCCc1ncc(/C=C(\Cc2cccs2)C(=O)O)n1Cc1ccc(C(=O)O)c(Cl)c1` returned a half-maximal inhibitory concentration (IC50) in assay [2] of 1.04 nM. Moreover, in the assay filed under Oryctolagus cuniculus [3], the Kb is 0.13 nM. Further, the ED50 with Rattus norvegicus [4] was found to be 16 mg/kg; in the assay on Rattus norvegicus [5], 0.12 mg/kg. This molecule gave a T1/2 in the assay on Rattus norvegicus [6] of 1.8 h.
`CCCCc1ncc(/C=C(\Cc2cccs2)C(=O)O)n1Cc1cc(Cl)c(C(=O)O)cc1Cl` had an IC50 in assay [2] of 35.4 nM. In the assay listed under Oryctolagus cuniculus [3], this molecule yielded a Kb of 1.58 nM. Besides, in the assay on Rattus norvegicus [5], the ED50 came out at 0.68 mg/kg.
As for `CCCCc1ncc(/C=C(\Cc2cccs2)C(=O)O)n1Cc1ccc(C(=O)O)cc1Cl`, the IC50 in assay [2] amounted to 1.45 nM. In the assay filed under Oryctolagus cuniculus [3], this molecule yielded a Kb of 0.02 nM. The ED50 in the assay with Rattus norvegicus [4] stood at 2.4 mg/kg; with Rattus norvegicus [5], 0.06 mg/kg. Also, the T1/2 in the assay on Rattus norvegicus [7] worked out at 2.5 h.
As for `CCCCc1ncc(/C=C(\Cc2cccs2)C(=O)O)n1Cc1ccc(C(=O)O)c2ccccc12`, the IC50 turned out to be 1.2 nM in assay [8], 31 nM in [9] and 11.8 nM in [2]. In the assay with Canis familiaris [10], this molecule came in with a Dose of 10 mg/kg. In the assay on Canis familiaris [11], this molecule showed a Mean blood pressure of 35 mmHg. Further, the Kb in the assay filed under Oryctolagus cuniculus [12] is 0.059 nM. Besides, the ED50 in the assay with Rattus norvegicus [4] came out at 3.8 mg/kg; in the assay with Rattus norvegicus [5], 0.05 mg/kg. This molecule registered a TIME in the assay filed under Rattus norvegicus [13] of 3 h. Further, the T1/2 in the assay with Rattus norvegicus [7] came to 2.42 h.
`CCCCc1ncc(/C=C(\Cc2cccs2)C(=O)O)n1Cc1ccc(C(=O)O)c(Cl)c1Cl` yielded a 50% inhibitory concentration (IC50) in assay [2] of 0.16 nM. In addition, the Kb in the assay filed under Oryctolagus cuniculus [3] was found to be 0.18 nM. Further, the values for the ED50 with Rattus norvegicus [4] and in the assay with Rattus norvegicus [5] were 5.4 mg/kg and 0.04 mg/kg, respectively. Moreover, in the assay with Rattus norvegicus [7], the T1/2 was found to be 1.6 h.
Consider `CCCCc1ncc(/C=C(\Cc2cccs2)C(=O)O)n1Cc1ccc(C(=O)O)cc1` [EPROSARTAN], for which the results for the IC50 in [14] and in assay [15] were 2 nM and 7.3 nM, respectively. The molecule further yielded a Dose in the assay with Canis familiaris [16] of 10 mg/kg. In the assay on Canis familiaris [11], this molecule registered a Mean blood pressure of 35 mmHg. For the same molecule, the Kb in the assay filed under Oryctolagus cuniculus [3] turned out to be 0.21 nM. Further, the ED50 in the assay on Rattus norvegicus [4] stood at 5.5 mg/kg; with Rattus norvegicus [5] it was 0.08 mg/kg. The molecule further had a TIME in the assay listed under Rattus norvegicus [13] of 0.5 h. The molecule also came in with a T1/2 with Rattus norvegicus [7] of 1.42 h.

(Values after ChEMBL document CHEMBL1152092, “A potent long-acting imidazole-5-acrylic acid angiotensin II AT-1 receptor antagonist” (Bioorg Med Chem Lett, 1994).)
